From patent US10711002B2, “Purine compounds and method for the treatment of cancer” (THE ROYAL INSTITUTION FOR THE ADVANCEMENT OF …, priority 2016, dated 2020)

Test system: PMC42-LA cells
Assay: Organoid differentiation on matrigel
Assay type: cell-based
Description: Cancer cell lines: MDA-MB-231, BT-20, Panc-1, OVCAR-3, 4T1 and RENCA were obtained from ATCC. Epithelial breast adenocarcinoma cell line PMC42-LA, were kindly provided by Dr. Ackland. Mia-Paca cells were kindly provided by Dr. George Zogopoulos. All cancer cell lines were cultured in RPMI1640× with 10% fetal bovine serum with 1% penicillin/streptomycin, and maintained at 37° C. in 5% atmosphere of CO2. In the case of growth factor stimulation, cells were serum starved for no longer than 12H, and then stimulated with 20 ng/ml EGF for 40 minutes.
In order to confirm that the reduction of CSC markers by Compound 1 correlates with loss of stem-cell properties, the effect of Compound 1 was investigated on the differentiation capability of a well-established PMC42-LA breast cell line. PMC42-LA cells treated with the appropriate concentrations of Compound 1 were also plated on Compound 1 containing matrigel and allowed to form organoids. Since the defining characteristic of stem cells is pluripotency—the capacity of a cell to differentiate into varying progenies, then Compound 1 may inhibit the differentiation process in those PMC42-LA cells. In the absence of drug treatment, PMC42-LA cells undergo differentiation into secretory organoids when cultured on matrigel.

O=c1c2ccccc2[se]n1-c1nc(NC2CCCCC2)c2nc[nH]c2n1 [Compound 1]
differentiation and expansion of colonies into larger organoid structures: visibly prevented the differentiation and expansion of these colonies into larger organoid structures | number of overall colonies: did not reduce the number of overall colonies
